Experimental data reported in US20170056336A1, “CO-TARGETING ANDROGEN RECEPTOR SPLICE VARIANTS AND MTOR SIGNALING PATHWAY FOR THE TREATMENT OF CASTRATION-RESISTANT PROSTATE CANCER” (British Columbia Cancer Agency Branch, priority 2015, published 2017).

How the values were obtained:
AR-V567 = target: T1, AR-V567 (Homo sapiens, UniProt P10275); experiment: PB-luciferase assay in Cos-1 cells transfected with AR-V567; type: cell-based; settings: 24 h, serum-free
T1 construct: expressed in transfected cells; host or cells: Cos-1
T1 sequence (P10275 with tags, fused parts or gaps limits assumed): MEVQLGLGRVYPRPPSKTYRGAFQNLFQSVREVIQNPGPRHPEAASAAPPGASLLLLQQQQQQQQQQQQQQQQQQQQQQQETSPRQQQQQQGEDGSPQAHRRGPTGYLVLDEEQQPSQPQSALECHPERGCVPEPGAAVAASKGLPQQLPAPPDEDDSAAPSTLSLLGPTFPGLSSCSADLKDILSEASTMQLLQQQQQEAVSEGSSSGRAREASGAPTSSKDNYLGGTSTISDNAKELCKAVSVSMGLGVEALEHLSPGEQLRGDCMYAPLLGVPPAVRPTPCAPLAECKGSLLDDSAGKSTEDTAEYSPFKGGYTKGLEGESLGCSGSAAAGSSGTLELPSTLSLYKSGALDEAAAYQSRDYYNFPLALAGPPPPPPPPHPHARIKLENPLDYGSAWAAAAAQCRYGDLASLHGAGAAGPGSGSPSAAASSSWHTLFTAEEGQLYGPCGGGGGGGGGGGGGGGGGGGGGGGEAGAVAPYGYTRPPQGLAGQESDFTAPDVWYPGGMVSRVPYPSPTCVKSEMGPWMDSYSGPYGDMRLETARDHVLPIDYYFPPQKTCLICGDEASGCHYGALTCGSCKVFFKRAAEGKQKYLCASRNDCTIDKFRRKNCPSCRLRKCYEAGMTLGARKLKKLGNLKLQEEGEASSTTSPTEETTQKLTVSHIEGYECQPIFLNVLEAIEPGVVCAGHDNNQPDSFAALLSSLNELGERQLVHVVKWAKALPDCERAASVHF
Source text: Ectopic protein levels of AR-V7 and AR-V567 in Cos-1 cells are shown relative to endogenous levels of FL-AR in LNCaP cells.

LNCaP95 xenografts [1] = experiment: Immunohistochemistry of harvested xenografts; type: in vivo, mice; settings: immunohistochemistry
LNCaP95 cells = experiment: Cell proliferation BrdU immunoassay; type: cell-based, human; settings: R1881 0.1 nM, 48 h, serum-free, Compound A 25 uM, enzalutamide 10 uM, BEZ-235 15 nM, everolimus 10 nM
AR = target: T2, AR (Homo sapiens, UniProt P10275, T878A); experiment: PSA-, ARR3-, PB-luciferase AR reporter assay in LNCaP95 cells; settings: LNCaP95 cells treated with androgen, BEZ-235 15 nM
T2 sequence (P10275 1-920 T878A): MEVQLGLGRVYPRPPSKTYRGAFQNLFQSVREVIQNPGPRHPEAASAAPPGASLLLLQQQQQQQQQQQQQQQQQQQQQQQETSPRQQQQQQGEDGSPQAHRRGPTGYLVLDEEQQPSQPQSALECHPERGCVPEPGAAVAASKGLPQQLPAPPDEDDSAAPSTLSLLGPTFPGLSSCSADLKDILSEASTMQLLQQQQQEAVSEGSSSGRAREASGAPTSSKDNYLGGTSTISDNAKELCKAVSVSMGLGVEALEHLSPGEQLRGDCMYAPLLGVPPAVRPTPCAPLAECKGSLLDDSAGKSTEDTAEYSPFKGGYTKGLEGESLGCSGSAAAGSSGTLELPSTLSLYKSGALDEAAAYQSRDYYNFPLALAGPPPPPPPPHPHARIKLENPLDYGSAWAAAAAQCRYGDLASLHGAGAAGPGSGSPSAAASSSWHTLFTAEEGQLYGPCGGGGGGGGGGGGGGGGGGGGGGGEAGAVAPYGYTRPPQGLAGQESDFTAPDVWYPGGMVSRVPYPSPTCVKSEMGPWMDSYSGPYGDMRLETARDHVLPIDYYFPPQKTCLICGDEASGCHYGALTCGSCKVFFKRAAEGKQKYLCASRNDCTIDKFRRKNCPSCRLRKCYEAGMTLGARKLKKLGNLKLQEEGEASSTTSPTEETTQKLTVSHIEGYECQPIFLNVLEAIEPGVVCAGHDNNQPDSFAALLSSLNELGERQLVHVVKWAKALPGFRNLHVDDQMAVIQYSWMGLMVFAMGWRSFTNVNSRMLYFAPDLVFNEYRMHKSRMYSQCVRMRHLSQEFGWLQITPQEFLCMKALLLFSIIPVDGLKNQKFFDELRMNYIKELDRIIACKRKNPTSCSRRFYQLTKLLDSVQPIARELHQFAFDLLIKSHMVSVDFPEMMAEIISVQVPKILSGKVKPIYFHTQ

CDK1 = CDK1 (Homo sapiens, UniProt P06493); settings: higher concentrations; read-out: concentration inhibiting CDK1; cited from earlier work
Chain of CDK1 (P06493 whole entry, species assumed): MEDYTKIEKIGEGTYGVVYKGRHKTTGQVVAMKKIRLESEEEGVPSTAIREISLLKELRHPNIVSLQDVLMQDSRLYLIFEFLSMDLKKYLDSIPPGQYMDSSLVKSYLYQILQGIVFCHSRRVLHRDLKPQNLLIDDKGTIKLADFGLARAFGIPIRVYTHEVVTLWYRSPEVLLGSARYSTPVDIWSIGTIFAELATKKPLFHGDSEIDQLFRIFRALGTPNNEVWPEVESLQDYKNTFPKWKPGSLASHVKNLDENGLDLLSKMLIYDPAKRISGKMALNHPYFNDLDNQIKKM
Chain of CDK1 (P14635 whole entry partner, species assumed): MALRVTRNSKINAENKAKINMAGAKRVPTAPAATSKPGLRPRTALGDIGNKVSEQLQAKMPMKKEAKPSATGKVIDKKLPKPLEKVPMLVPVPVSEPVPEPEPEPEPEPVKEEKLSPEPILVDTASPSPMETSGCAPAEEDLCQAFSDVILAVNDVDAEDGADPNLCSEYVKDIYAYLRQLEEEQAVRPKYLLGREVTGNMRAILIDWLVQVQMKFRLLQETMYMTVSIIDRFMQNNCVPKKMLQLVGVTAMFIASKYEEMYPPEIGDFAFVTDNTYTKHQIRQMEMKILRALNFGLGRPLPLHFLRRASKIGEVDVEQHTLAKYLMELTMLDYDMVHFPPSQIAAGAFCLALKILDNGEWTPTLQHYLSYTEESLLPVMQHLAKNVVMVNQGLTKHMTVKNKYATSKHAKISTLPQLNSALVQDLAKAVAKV

[2] = tested on: mTOR and AR pathways in LNCaP95 cells; experiment: Western blot analysis of mTOR and AR pathways in LNCaP95 cells; type: cell-based, human; settings: LNCaP95 cells
Description: Cells were harvested and whole-cell lysate (10 to 15 ug) was subjected to SDS-PAGE. Antibodies used were: AR (1:1000; Santa Cruz), AR-V7 (1:400; Precision), p110α (1:500; BD Bioscience), p110β (1:1000; abcam), […] (1:1000; abcam), p110δ (1:1000; abcam), UBE2C (Boston Biochem; 1:1000), PTEN (1:1000), pS6 (1:2000), pAktThr308 (1:1000), pAktSer473 (1:2000), p4EBP1 (1:1000), total-Akt (1:1000), total-S6 (1:1000), total-4EBP1 (1:1000), pERK/MAPK (1:1000), total-ERK/MAPK (1:1000) from Cell Signaling technology (Danvers, Mass.). β-actin (1:10,000, Abcam) was used as a loading control.
Protein levels of PSA were undetectable in LNCaP95 cells.

LNCaP95 xenografts [3] = experiment: Western blot analyses of protein lysates from xenografts; type: in vivo, mice
[4] = tested on: mTOR and AR pathways in parental LNCaP cells; experiment: Western blot analysis of mTOR and AR pathways in parental LNCaP cells; type: cell-based, human; settings: BEZ-235 15 nM
[5] = absence of androgen, BEZ-235 15 nM
[6] = harvested tumors, Compound A 100 mg/kg, BEZ-235 5 mg/kg
[7] = xenografts harvested 1 h after last treatment, BEZ-235 5 mg/kg

Cn1c(=O)n(-c2ccc(C(C)(C)C#N)cc2)c2c3cc(-c4cnc5ccccc5c4)ccc3ncc21 [BEZ-235, 2-methyl-2-[4-(3-methyl-2-oxo-8-quinolin-3-ylimidazo[4,5-c]quinolin-1-yl)phenyl]propanenitrile]
transcriptional activity of AR-V567 (AR-V567): no effect | UBE2C staining (LNCaP95 xenografts [1]): reduced | pS6 staining (LNCaP95 xenografts [1]): reduced | proliferation (BrdU incorporation) (LNCaP95 cells): inhibited | PSA-, ARR3- and PB-luciferase activities (AR): significantly increased | IC50 (CDK1): > 10 µM | pAkt ([2]; 500 nM BEZ-235): inhibited | levels of UBE2C ([2]; 48 h): decreased | pAkt ([2]; BEZ-235 15 nM, everolimus): did not impact | levels of AR-V7 [2, 5]: increased | levels of FL-AR [2, 5]: increased | protein levels of FL-AR ([2]; titration experiments): increased | pS6 ribosomal protein ([2]; titration, BEZ-235 15 nM, everolimus 10 nM): inhibited | levels of p4EBP1 (LNCaP95 xenografts [3]; harvested tumors, normalized to total 4EBP1): no significant change | levels of pAkt (LNCaP95 xenografts [3]; harvested tumors, normalized to total Akt): no significant change | protein levels of UBE2C (LNCaP95 xenografts [3]; [6]): reduced | protein levels of pS6 (LNCaP95 xenografts [3]; [6]): reduced | protein levels of FKBP5 (LNCaP95 xenografts [3]; in vivo, monotherapies): reduced | protein levels of AR-V7 (LNCaP95 xenografts [3]; [7]): reduced | protein levels of FL-AR (LNCaP95 xenografts [3]; [7]): reduced | pAkt ([4]; LNCaP cells): no effect | levels of FL-AR ([4]; parental LNCaP cells, absence of androgen): increased | PSA protein ([4]; parental LNCaP cells, regardless of androgen status): increased
